The text below walks through data of patent US20120220564A1, “SELECTIVE CALCIUM CHANNEL MODULATORS” (Zalicus Pharmaceuticals Ltd., priority 2009, published 2012).

The target in data set [1] is T1, α1H (CaV 3.2) (Homo sapiens, UniProt O95180).
T1 construct: expressed in transfected cells; host or cells: HEK 293
The experiment in a line: T-type calcium channel block, whole cell patch clamp. The conditions noted are these: HEK cells, mainly non-inactivated protocol; values above 10,000 nM represented as 10000. The format is cell-based. The protocol:
(§1) T-type calcium channel blocking activity was assayed in human embryonic kidney cells, HEK 293 (Invitrogen), stably transfected with the T-type calcium channel subunits. Briefly, cells were cultured in Dulbecco's modified eagle medium (DMEM) supplemented with 10% fetal bovine serum, 200 U/ml penicillin, and 0.2 mg/mL streptomycin at 37° C. with 5% CO2. At 85% confluency, cells were split with 0.25% trypsin/1 mM EDTA and plated at 10% confluency on glass coverslips. At 12 hours, the medium was replaced, and the cells stably transfected using a standard calcium phosphate protocol and the appropriate calcium channel cDNA's. Fresh DMEM was supplied, and the cells transferred to 28° C./5% CO2. Cells were incubated for 1 to 2 days prior to whole cell recording.
(§2) Standard patch-clamp techniques were employed to identify blockers of T-type currents. Briefly, previously described HEK cell lines stably expressing human α1G, α1H and α1I T-type channels were used for all the recordings (passage #: 4-20, 37° C., 5% CO2). Whole cell patch clamp experiments were performed using an Axopatch 200B amplifier (Axon Instruments, Burlingame, Calif.) linked to a personal computer equipped with pCLAMP software. Data were analyzed using Clampfit (Axon Instruments) and SigmaPlot 4.0 (Jandel Scientific). To obtain T-type currents, plastic dishes containing semi-confluent cells were positioned on the stage of a ZEISS AXIOVERT S100 microscope after replacing the culture medium with external solution (Table 2). Whole-cell patches were obtained using pipettes (borosilicate glass with filament, O.D.: 1.5 mm, I.D.: 0.86 mm, 10 cm length), fabricated on a SUTTER P-97 puller with resistance values of ˜5 MΩ (Table 3).
(§3) T-type currents were reliably obtained by using two voltage protocols:
(§4) In the non-inactivating protocol, the holding potential is set at −110 mV and with a pre-pulse at −100 mV for 1 second prior to the test pulse at −40 mV for 50 ms. In the inactivation protocol, the pre-pulse is at approximately −85 mV for 1 second, which inactivates about 15% of the T-type channels (Scheme 1).
(§5) Test compounds were dissolved in external solution, 0.1-0.01% DMSO. After ˜10 minutes rest, they were applied by gravity close to the cell using a WPI microfil tubing. The “non-inactivated” pre-pulse was used to examine the resting block of a compound. The “inactivated” protocol was employed to study voltage-dependent block. However, the initial data shown below were mainly obtained using the non-inactivated protocol only. IC50 values are shown for various compounds of the invention in Table 4. […] In Table 4, empty cells indicate that inhibition by the compound was not detected.

Data set [2] addresses T2, α1G (CaV 3.1) (Homo sapiens, UniProt O43497).
T2 construct: expressed in transfected cells; host or cells: HEK 293
The description is as above. The format is cell-based. The conditions noted are these: HEK cells, mainly non-inactivated protocol; values above 10,000 nM represented as 10000. The protocol: as §1, §2, §3, §4, §5

Data set [3] concerns minimal muscular or neurological impairment (rotarod). The experiment in a line: Mouse rotarod assay. The format is in vivo, mice. Here is the method: To assess a compound's undesirable side effects (toxicity), animals can be monitored for overt signs of impaired neurological or muscular function. In mice, the rotarod procedure (Dunham and Miya, J. Am. Pharmacol. Assoc. 46:208-209 (1957)) is used to disclose minimal muscular or neurological impairment (MMI). When a mouse is placed on a rod that rotates at a speed of 6 rpm, the animal can maintain its equilibrium for long periods of time. The animal is considered toxic if it falls off this rotating rod three times during a 1-min period.
For orientation: The rotarod test checks motor coordination on a turning rod.

Data set [4] relates to 6 Hz psychomotor seizure. Kind of data set: 6 Hz psychomotor seizure model of partial epilepsy. The format is in vivo, mice. Details: concentration or dose not given beside the values. An excerpt:
Compounds can also be evaluated for the protection against seizures induced by a 6 Hz, 0.2 ms rectangular pulse width of 3 s duration, at a stimulus intensity of 32 mA (CC97) applied to the cornea of male CF1 mice (20-30 g) according to procedures described by Barton et al, “Pharmacological Characterization of the 6 Hz Psychomotor Seizure Model of Partial Epilepsy,” Epilepsy Res. 47(3):217-27 (2001). Seizures are characterised by the expression of one or more of the following behaviours: stun, forelimb clonus, twitching of the vibrissae and Straub-tail immediately following electrical stimulation.

T1 sequence (O95180 whole entry): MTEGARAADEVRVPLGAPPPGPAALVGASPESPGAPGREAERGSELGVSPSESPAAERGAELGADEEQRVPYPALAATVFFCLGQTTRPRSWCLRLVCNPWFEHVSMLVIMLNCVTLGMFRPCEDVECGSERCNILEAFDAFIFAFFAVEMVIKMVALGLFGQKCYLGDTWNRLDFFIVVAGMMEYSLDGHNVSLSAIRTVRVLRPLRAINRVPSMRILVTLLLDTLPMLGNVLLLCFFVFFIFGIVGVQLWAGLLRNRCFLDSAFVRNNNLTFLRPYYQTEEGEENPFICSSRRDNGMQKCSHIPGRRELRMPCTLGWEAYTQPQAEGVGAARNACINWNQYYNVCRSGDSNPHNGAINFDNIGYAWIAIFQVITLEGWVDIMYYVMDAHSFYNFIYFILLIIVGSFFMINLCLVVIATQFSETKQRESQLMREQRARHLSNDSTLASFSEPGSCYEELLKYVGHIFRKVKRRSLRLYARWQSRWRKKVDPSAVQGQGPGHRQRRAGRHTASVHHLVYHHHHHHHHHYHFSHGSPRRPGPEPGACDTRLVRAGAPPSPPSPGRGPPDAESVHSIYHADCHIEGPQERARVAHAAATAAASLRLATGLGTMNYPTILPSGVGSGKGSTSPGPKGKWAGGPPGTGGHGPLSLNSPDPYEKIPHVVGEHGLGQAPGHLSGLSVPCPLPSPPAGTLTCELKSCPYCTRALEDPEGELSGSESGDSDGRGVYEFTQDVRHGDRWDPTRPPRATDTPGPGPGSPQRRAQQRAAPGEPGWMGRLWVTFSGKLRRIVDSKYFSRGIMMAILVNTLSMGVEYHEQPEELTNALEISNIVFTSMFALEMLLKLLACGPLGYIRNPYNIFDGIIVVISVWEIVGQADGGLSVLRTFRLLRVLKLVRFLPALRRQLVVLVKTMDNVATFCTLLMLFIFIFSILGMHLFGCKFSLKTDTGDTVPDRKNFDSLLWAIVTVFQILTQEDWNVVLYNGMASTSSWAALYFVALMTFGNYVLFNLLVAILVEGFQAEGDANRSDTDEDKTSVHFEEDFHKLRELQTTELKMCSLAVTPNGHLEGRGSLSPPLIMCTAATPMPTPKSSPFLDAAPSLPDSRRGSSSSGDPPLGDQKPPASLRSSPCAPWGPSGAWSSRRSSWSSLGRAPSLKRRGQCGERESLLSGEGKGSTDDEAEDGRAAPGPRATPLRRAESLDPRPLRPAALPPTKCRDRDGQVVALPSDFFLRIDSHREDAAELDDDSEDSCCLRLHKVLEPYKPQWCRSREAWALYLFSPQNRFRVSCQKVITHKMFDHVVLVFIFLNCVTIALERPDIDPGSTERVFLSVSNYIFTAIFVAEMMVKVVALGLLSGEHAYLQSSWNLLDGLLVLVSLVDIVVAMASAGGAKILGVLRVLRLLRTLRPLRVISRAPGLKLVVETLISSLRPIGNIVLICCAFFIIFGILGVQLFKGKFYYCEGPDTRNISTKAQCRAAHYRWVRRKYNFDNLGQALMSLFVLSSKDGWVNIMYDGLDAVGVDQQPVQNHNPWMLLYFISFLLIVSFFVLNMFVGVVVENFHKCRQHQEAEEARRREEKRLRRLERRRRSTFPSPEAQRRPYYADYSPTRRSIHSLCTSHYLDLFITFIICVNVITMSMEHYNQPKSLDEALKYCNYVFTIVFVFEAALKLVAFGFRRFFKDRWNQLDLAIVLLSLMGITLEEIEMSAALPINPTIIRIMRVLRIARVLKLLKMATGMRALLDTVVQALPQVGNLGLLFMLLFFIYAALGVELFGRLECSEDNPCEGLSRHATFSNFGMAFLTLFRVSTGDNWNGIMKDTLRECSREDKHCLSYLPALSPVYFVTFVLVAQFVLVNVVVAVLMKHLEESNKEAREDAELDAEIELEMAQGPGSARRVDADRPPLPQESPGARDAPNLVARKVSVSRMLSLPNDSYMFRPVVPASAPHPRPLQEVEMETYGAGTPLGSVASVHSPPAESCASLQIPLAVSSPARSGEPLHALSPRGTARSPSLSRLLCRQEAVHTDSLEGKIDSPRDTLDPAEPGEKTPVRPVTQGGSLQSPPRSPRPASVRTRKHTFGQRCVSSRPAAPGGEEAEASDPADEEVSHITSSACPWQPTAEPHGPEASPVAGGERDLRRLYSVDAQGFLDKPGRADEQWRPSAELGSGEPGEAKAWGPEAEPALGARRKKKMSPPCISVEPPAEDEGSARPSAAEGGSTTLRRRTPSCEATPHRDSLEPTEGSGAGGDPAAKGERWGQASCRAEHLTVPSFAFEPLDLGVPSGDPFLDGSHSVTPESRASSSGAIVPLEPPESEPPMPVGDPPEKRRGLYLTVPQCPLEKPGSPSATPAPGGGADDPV
T2 sequence (O43497 whole entry): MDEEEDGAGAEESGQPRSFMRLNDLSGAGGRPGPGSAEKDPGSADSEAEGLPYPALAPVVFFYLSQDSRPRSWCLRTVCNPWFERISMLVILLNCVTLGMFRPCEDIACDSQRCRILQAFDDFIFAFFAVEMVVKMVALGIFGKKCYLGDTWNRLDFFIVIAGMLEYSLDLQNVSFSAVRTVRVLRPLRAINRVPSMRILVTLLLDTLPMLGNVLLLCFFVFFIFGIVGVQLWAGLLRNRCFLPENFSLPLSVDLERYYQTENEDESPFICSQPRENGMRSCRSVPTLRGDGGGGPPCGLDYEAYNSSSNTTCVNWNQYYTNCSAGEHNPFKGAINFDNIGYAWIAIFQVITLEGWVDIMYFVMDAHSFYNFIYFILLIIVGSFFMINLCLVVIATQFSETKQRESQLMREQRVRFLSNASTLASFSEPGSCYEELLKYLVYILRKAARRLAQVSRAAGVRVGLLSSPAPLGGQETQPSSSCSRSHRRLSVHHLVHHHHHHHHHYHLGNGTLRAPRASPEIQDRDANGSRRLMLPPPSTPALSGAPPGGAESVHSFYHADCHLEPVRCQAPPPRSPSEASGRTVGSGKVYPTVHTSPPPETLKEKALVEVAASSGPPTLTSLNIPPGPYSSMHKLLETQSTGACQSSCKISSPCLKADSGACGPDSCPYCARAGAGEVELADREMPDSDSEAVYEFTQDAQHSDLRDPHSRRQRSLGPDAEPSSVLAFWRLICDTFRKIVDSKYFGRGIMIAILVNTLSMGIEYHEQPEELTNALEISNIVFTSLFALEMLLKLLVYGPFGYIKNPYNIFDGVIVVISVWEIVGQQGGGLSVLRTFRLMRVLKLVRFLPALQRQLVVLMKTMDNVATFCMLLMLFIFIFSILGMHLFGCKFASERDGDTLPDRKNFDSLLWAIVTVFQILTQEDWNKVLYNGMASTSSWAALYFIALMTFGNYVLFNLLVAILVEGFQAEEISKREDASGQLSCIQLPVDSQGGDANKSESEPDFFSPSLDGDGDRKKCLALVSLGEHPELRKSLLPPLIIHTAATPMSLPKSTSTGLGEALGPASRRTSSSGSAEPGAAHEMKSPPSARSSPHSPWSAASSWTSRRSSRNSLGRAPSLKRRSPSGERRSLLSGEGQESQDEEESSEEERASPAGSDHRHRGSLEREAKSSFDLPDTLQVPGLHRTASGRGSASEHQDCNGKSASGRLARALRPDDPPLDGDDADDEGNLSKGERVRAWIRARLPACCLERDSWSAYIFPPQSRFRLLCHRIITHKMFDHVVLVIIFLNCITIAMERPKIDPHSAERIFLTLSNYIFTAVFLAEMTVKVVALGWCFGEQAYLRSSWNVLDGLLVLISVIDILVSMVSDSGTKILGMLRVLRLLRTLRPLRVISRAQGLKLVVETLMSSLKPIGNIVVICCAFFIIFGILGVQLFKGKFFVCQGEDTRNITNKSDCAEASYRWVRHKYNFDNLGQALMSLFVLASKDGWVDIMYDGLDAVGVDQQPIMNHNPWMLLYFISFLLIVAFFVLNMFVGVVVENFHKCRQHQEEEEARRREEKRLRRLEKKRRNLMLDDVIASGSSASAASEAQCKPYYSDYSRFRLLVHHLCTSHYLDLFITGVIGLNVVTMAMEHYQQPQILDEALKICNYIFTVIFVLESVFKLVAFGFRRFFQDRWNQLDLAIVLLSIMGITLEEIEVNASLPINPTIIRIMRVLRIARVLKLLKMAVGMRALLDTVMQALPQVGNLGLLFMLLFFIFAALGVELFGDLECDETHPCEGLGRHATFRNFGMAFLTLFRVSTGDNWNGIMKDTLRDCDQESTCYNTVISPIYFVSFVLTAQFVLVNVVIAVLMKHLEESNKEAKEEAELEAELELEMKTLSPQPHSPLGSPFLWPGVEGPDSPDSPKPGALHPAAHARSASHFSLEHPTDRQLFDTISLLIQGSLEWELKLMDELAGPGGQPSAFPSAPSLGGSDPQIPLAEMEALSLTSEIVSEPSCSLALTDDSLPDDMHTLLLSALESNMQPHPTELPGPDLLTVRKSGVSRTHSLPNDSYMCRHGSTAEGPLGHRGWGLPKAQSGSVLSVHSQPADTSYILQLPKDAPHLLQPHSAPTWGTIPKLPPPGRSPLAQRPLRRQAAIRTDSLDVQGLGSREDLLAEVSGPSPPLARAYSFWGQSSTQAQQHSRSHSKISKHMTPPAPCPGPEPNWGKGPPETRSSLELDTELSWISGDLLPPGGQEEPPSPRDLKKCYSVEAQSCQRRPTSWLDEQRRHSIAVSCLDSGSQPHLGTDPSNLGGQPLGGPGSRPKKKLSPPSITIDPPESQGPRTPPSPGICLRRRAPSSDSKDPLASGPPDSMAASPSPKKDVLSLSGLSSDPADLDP

On to `O=C(CC1CCN(C(=O)C2CNCCO2)CC1)Nc1cc(C(F)(F)F)cc(C(F)(F)F)c1` (stereo not drawn) [Compound 4, N-(3,5-bis(trifluoromethyl)phenyl)-2-(1-(morpholine-2-carbonyl)piperidin-4-yl)acetamide], for which the figures for the IC50 in data set [1] and in data set [2] were 2.18 µM and over 10 µM, respectively. Also, the “Rotarod Assay (% impaired)” value in data set [3] (0.25 hr) amounted to 25%; in data set [3] (0.5 hr), 0%; in data set [3] (1 hr) it was 75%; in data set [3] (2 hr) it was 75%; in data set [3] (4 hr), 75%.
With `NC1(CC(=O)N2CCC(CC(=O)Nc3cc(C(F)(F)F)cc(C(F)(F)F)c3)CC2)CCCCC1` [Compound 8, 2-(1-(2-(1-aminocyclohexyl)acetyl)piperidin-4-yl)-N-(3,5-bis(trifluoromethyl)phenyl)acetamide], the IC50 is 0.11 µM in data set [1] and over 10 µM in data set [2]. Further, the “Rotarod Assay (% impaired)” value stood at 0% in data set [3] (0.25 hr); 50% in data set [3] (0.5 hr); 75% in data set [3] (1 hr); 100% in data set [3] (2 hr); 100% in data set [3] (4 hr). In addition, the “Epilepsy 6 Hz (% Protected)” value in data set [4] (0.25 hr) was determined as 75%; in data set [4] (0.5 hr) it was 75%; in data set [4] (1 hr) it was 67%; in data set [4] (2 hr) it was 100%.
As to `N[C@@H]1CCCC[C@@H]1C(=O)N1CCC(CC(=O)Nc2cc(C(F)(F)F)cc(C(F)(F)F)c2)C1` (stereo partly drawn) [Compound 31, 2-(1-((1S,2R)-2-aminocyclohexanecarbonyl)pyrrolidin-3-yl)-N-(3,5-bis(trifluoromethyl)phenyl)acetamide], the figures for the IC50 in data set [1] and in data set [2] were 0.46 µM and 6.19 µM, respectively.
The like results for `N[C@@H]1CCCC[C@H]1C(=O)N1CCC(CC(=O)Nc2cc(C(F)(F)F)cc(C(F)(F)F)c2)C1` (stereo partly drawn) [Compound 32, 2-(1-((1R,2R)-2-aminocyclohexanecarbonyl)pyrrolidin-3-yl)-N-(3,5-bis(trifluoromethyl)phenyl)acetamide] were, in that order, 0.63 µM and 5.66 µM.
The like results for `N[C@H]1CCCC[C@@H]1C(=O)N1CCC(CC(=O)Nc2cc(C(F)(F)F)cc(C(F)(F)F)c2)C1` (stereo partly drawn) [Compound 33, 2-(1-((1S,2S)-2-aminocyclohexanecarbonyl)pyrrolidin-3-yl)-N-(3,5-bis(trifluoromethyl)phenyl)acetamide] were, in that order, 0.26 µM and 5.29 µM.
In the case of `CC1(C(=O)N2CCC(CC(=O)Nc3cc(C(F)(F)F)cc(C(F)(F)F)c3)C2)CCCCN1` (stereo not drawn) [Compound 34, N-(3,5-bis(trifluoromethyl)phenyl)-2-(1-(2-methylpiperidine-2-carbonyl)pyrrolidin-3-yl)acetamide], the IC50 in data set [1] came out at 1.94 µM; in data set [2], 4.4 µM.
On to `CN1CCCCC1C(=O)N1CCC(CC(=O)Nc2cc(C(F)(F)F)cc(C(F)(F)F)c2)C1` (stereo not drawn) [Compound 35, N-(3,5-bis(trifluoromethyl)phenyl)-2-(1-(1-methylpiperidine-2-carbonyl)pyrrolidin-3-yl)acetamide], for which the figures for the IC50 in data set [1] and in data set [2] were 1.95 µM and 6.02 µM, respectively.
For the compound `CN1CCCC(C(=O)N2CCC(CC(=O)Nc3cc(C(F)(F)F)cc(C(F)(F)F)c3)C2)C1` (stereo not drawn) [Compound 36, N-(3,5-bis(trifluoromethyl)phenyl)-2-(1-(1-methylpiperidine-3-carbonyl)pyrrolidin-3-yl)acetamide], the 50% inhibitory concentration (IC50) in data set [1] is 2.44 µM; in data set [2] it was 8.1 µM.
The like results for `CN1CCCCC1C(=O)N1CC(CC(=O)Nc2cc(C(F)(F)F)cc(C(F)(F)F)c2)C1` (stereo not drawn) [Compound 37, N-(3,5-bis(trifluoromethyl)phenyl)-2-(1-(1-methylpiperidine-2-carbonyl)azetidin-3-yl)acetamide] were, in that order, 4.39 µM and over 10 µM.
Take `CN1CCCC(C(=O)N2CC(CC(=O)Nc3cc(C(F)(F)F)cc(C(F)(F)F)c3)C2)C1` (stereo not drawn) [Compound 38, N-(3,5-bis(trifluoromethyl)phenyl)-2-(1-(1-methylpiperidine-3-carbonyl)azetidin-3-yl)acetamide]: the values for the IC50 in data set [1] and in data set [2] were 8.04 µM and over 10 µM, respectively.
`O=C(CC1CN(C(=O)C2CCCCN2)C1)Nc1cc(C(F)(F)F)cc(C(F)(F)F)c1` (stereo not drawn) [Compound 39, N-(3,5-bis(trifluoromethyl)phenyl)-2-(1-(piperidine-2-carbonyl)azetidin-3-yl)acetamide]: the results for the IC50 in data set [1] and in data set [2] were 1.21 µM and over 10 µM, respectively.
The like results for `CC(C)(N)CC(=O)N1CCC(CC(=O)Nc2cc(C(F)(F)F)cc(C(F)(F)F)c2)CC1` [Compound 42, 2-(1-(3-amino-3-methylbutanoyl)piperidin-4-yl)-N-(3,5-bis(trifluoromethyl)phenyl)acetamide] were, in that order, 0.57 µM and over 10 µM.
The like results for `CC(C)(N)CC(=O)N1CC(CC(=O)Nc2cc(C(F)(F)F)cc(C(F)(F)F)c2)C1` [Compound 43, 2-(1-(3-amino-3-methylbutanoyl)azetidin-3-yl)-N-(3,5-bis(trifluoromethyl)phenyl)acetamide] were, in that order, over 10 µM and over 10 µM.
The like results for `CC(C)(N)CC(=O)N1CCC(CC(=O)Nc2cc(C(F)(F)F)cc(C(F)(F)F)c2)C1` (stereo not drawn) [Compound 44, 2-(1-(3-amino-3-methylbutanoyl)pyrrolidin-3-yl)-N-(3,5-bis(trifluoromethyl)phenyl)acetamide] were, in that order, 2.1 µM and over 10 µM.
`CC(C)(CN)C(=O)N1CCC(CC(=O)Nc2cc(C(F)(F)F)cc(C(F)(F)F)c2)CC1` [Compound 45, 2-(1-(3-amino-2,2-dimethylpropanoyl)piperidin-4-yl)-N-(3,5-bis(trifluoromethyl)phenyl)acetamide]: the IC50 in data set [1] was 0.54 µM; in data set [2], over 10 µM.
The like results for `CC(C)(CN)C(=O)N1CC(CC(=O)Nc2cc(C(F)(F)F)cc(C(F)(F)F)c2)C1` [Compound 46, 2-(1-(3-amino-2,2-dimethylpropanoyl)azetidin-3-yl)-N-(3,5-bis(trifluoromethyl)phenyl)acetamide] were, in that order, over 10 µM and over 10 µM.
The like results for `CC(C)(CN)C(=O)N1CCC(CC(=O)Nc2cc(C(F)(F)F)cc(C(F)(F)F)c2)C1` (stereo not drawn) [Compound 47, 2-(1-(3-amino-2,2-dimethylpropanoyl)pyrrolidin-3-yl)-N-(3,5-bis(trifluoromethyl)phenyl)acetamide] were, in that order, 3.37 µM and over 10 µM.

By IC50 is commonly meant the concentration that gives 50% inhibition.
